Test results reported in article PMC6150197, “NeoBOMB1, a GRPR-Antagonist for Breast Cancer Theragnostics: First Results of a Preclinical Study with [^67Ga]NeoBOMB1 in T-47D Cells and Tumor-Bearing Mice” (Molecules : A Journal of Synthetic Chemistry and Natural …, 2017).
Read-outs that look alike come from different tables or passages of the source. Square brackets hold non-standard residues; d marks the D form. * marks the point of attachment. DOTA = O=C(O)CN1CCN(CC(=O)O)CCN(CC(=O)*)CCN(CC(=O)O)CC1

Biological target: T1, GRPR (Homo sapiens, UniProt P30550)
T1 construct: Human ductal breast carcinoma T-47D cells endogenously expressing the GRPR were used in all biological assays; endogenous in cells; host or cells: T-47D human ductal breast carcinoma cells (live, adherent, 4 °C)
T1 sequence (P30550 whole entry): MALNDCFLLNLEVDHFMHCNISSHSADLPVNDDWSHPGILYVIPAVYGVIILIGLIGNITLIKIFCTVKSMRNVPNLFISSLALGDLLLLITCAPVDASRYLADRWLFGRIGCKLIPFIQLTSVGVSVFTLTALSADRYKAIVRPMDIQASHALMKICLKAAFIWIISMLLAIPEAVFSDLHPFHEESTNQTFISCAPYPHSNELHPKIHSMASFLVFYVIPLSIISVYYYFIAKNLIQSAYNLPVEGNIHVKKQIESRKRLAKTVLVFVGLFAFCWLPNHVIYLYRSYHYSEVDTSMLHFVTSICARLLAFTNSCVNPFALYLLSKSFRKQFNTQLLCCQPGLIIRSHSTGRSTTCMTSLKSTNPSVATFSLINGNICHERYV
Assay: Competition binding against [^125I-Tyr^4]BBN in T-47D cells
Protocol: Methionine was added to the purified radioligand solution to prevent re-oxidation of Met^14 to the corresponding sulfoxide and the resulting stock solution in 0.1% BSA-PBS was kept at −20 °C; aliquots thereof were used for competition binding assays (specific activity of 2.2 Ci/μmol). Samples were measured for radioactivity in an automatic well-type gamma counter (NaI(Tl)] crystal, Canberra Packard Auto-Gamma 5000 series instrument, Schwadorf, Austria).
Human ductal breast carcinoma T-47D cells endogenously expressing the GRPR were used in all biological assays [14, 22, 23]. Cells were cultured in RPMI supplemented with 10% FBS, 100 U/mL penicillin and 100 µg/mL streptomycin, and kept in a controlled humidified atmosphere containing 5% CO2 at 37 °C. Passages were performed weekly using a trypsin/EDTA (0.05%/0.02% w/v) solution.
Cells were seeded in 12-well plates 24 h in advance (0.6 × 10^6 cells per well). On the day of the experiment, cells were placed on ice and washed with chilled washing medium (2 × 1 mL, RPMI supplemented with 1% heat inactivated FBS). […] Lysates were collected, combined and counted for their radioactivity content in a γ-counter. The IC50 values were calculated adopting nonlinear regression according to a one-site model applying the PRISM^TM 2 program (GraphPad Software, San Diego, CA, USA). […]

Molecule	IC50 [nM]	IC50 (live T-47D cells, 3 h incubation at 4 °C, one-site model, mean ± sd, n = 3 (n = 5 for [Tyr^4]BBN), in triplicate, read-out: IC50, displacement of [^125I-Tyr^4]BBN from GRPR-sites on T-47D cells) [nM]
CC(C)CC(CC(C)C)NC(=O)[C@H](Cc1cnc[nH]1)NC(=O)CNC(=O)[C@@H](NC(=O)[C@H](C)NC(=O)[C@H](Cc1c[nH]c2ccccc12)NC(=O)[C@H](CCC(N)=O)NC(=O)[C@@H](Cc1ccccc1)NC(=O)COCC(=O)Nc1ccc(CNC(=O)CN2CCN(CC(=O)O)CCN(CC(=O)O)CCN(CC(=O)O)CC2)cc1)C(C)C [NeoBOMB1, DOTA-p-aminomethylaniline-diglycolic acid-DPhe-Gln-Trp-Ala-Val-Gly-His-NH-CH[CH2-CH(CH3)2]2]	2.2 ± 0.2	–
[^natGa]NeoBOMB1: NeoBOMB1 metalated with ^natGa ({DOTA-p‑aminomethylaniline-diglycolic acid}-[dF]QWAVGH-{2,6‑dimethylheptan‑4‑yl amide}; also: DOTA chelating natGa(III))	–	2.5 ± 0.2
